Data from PMC9075979 (Molecular Therapy, 2022).

Target: Omicron variant RBD or S1 domains-hACE2 binding (Homo sapiens, UniProt Q9BYF1)
Sequence (Q9BYF1 18-740, stated change not applied): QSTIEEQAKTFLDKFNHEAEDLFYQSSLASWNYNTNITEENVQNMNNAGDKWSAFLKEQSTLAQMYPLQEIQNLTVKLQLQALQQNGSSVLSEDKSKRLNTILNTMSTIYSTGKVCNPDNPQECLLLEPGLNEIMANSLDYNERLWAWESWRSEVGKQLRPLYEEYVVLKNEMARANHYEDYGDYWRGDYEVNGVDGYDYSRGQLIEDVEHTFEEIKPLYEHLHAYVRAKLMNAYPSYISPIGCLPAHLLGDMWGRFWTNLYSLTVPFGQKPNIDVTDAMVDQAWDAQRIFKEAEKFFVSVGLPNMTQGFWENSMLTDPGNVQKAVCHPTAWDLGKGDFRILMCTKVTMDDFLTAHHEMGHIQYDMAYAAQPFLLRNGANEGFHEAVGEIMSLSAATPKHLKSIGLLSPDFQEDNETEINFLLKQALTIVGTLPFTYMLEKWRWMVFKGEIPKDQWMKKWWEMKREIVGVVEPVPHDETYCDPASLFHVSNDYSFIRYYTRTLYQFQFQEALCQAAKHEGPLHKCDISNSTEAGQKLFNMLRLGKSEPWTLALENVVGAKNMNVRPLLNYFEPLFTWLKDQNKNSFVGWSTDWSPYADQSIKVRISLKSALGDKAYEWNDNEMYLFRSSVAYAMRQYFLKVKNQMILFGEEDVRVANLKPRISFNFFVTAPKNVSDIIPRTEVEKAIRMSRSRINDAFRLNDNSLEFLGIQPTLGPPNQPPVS

c1ccc(-c2ccc(C(c3ccccc3)n3ccnc3)cc2)cc1 (stereo not shown) [bifonazole]
binding of Omicron variant RBD or S1 bioreporters to hACE2: significantly reduced binding
